The structures appear in SMILES notation. Where two headings read alike, the source gives them in different places. Where only a bound is given, the exact number is not on record here.

Holding throughout (format): biochemical
The target in assay [1] is T1, PI3Kδ (Homo sapiens, UniProt O00329).
T1 construct: purchased Merck Millipore
In words: In vitro kinase inhibition assay for PI3K (ADP-Glo), PI3Kδ. Conditions: recombinant kinase, mean of two independent experiments, read-out: IC50 PI3K δ. The protocol: (§1) Tested compounds were dissolved in 100% DMSO, and obtained solutions were serially diluted in 1× reaction buffer. The recombinant kinase solution was diluted in a reaction mixture comprising 5× reaction buffer, respective compound solution (1 mM sodium diacetate 4,5-bisphosphate phosphatidylinositol (PIP2) solution in 40 mM Tris buffer), and water. In a 96-wells plate, 5 μL of compound solutions and 15 μL of the kinase solution in the reaction mixture were added per well. To initiate the interaction of chemical compounds to be tested with the enzyme, the plate was incubated for 10 min at a suitable temperature in a plate thermostat with orbital shaking at 600 rpm. Negative control wells contained all the above reagents except tested compound and kinase, and positive control wells contained all the above reagents except tested compounds. […] Subsequently, the plate was incubated for 1 h at 25 or 30 °C (depending on the PI3K isoform tested) in a plate thermostat with orbital shaking of the plate contents at 600 rpm. The reaction conditions are combined in the table below (Table 6).
(§2) Detection of ADP formed in the enzymatic reaction was then performed using ADP-Glo Kinase Assay™ (Promega, Madison, WI, USA). To the wells of a 96-well plate, 25 μL of ADP-Glo Reagent™ was added, and the plate was incubated for 40 min at 25 °C in a plate thermostat with orbital shaking at 600 rpm. Then 50 μL of Kinase Detection Reagent were added to each well, and the plate was incubated for 40 min at 25 °C in a plate thermostat with orbital shaking at 600 rpm. Once the incubation was complete, the luminescence intensity was measured using a Victor Light luminometer (Perkin Elmer, Inc., Waltham, MA, USA). IC50 values were determined based on luminescence intensity measured in wells containing tested compounds at different concentrations in relation to control wells. […] Each compound was tested at least in quadruplicates (4 wells) on two 96-well plates utilizing at least 4 wells for each control.

The target in assay [2] is T2, PI3Kβ (Homo sapiens, UniProt P42338).
T2 construct: purchased Merck Millipore
Nature of the assay: In vitro kinase inhibition assay for PI3K (ADP-Glo), PI3Kβ. Conditions: for Fold Selectivity β/δ: ratio of IC50 PI3Kβ to IC50 PI3Kδ; for IC50: recombinant kinase, ADP-Glo, mean of two independent experiments, read-out: IC50 PI3K β. The protocol: as §1, §2

Assay [3] deals with T3, PI3Kα (Homo sapiens, UniProt P42336).
T3 construct: purchased Carna Biosciences
In words: In vitro kinase inhibition assay for PI3K (ADP-Glo), PI3Kα. Conditions: for IC50: IC50 PI3K α, recombinant kinase, ADP-Glo, mean of two independent experiments; for Fold Selectivity α/δ: ratio of IC50 PI3Kα to IC50 PI3Kδ. The procedure: Tested compounds were dissolved in 100% DMSO, and obtained solutions were serially diluted in 1× reaction buffer. The recombinant kinase solution was diluted in a reaction mixture comprising 5× reaction buffer, respective compound solution (1 mM sodium diacetate 4,5-bisphosphate phosphatidylinositol (PIP2) solution in 40 mM Tris buffer), and water. In a 96-wells plate, 5 μL of compound solutions and 15 μL of the kinase solution in the reaction mixture were added per well. To initiate the interaction of chemical compounds to be tested with the enzyme, the plate was incubated for 10 min at a suitable temperature in a plate thermostat with orbital shaking at 600 rpm. Negative control wells contained all the above reagents except tested compound and kinase, and positive control wells contained all the above reagents except tested compounds. The enzymatic reaction was initiated by adding 5 μL of 150 μM ATP solution. Subsequently, the plate was incubated for 1 h at 25 or 30 °C (depending on the PI3K isoform tested) in a plate thermostat with orbital shaking of the plate contents at 600 rpm. The reaction conditions are combined in the table below (Table 6).
Detection of ADP formed in the enzymatic reaction was then performed using ADP-Glo Kinase Assay™ (Promega, Madison, WI, USA). To the wells of a 96-well plate, 25 μL of ADP-Glo Reagent™ was added, and the plate was incubated for 40 min at 25 °C in a plate thermostat with orbital shaking at 600 rpm. Then 50 μL of Kinase Detection Reagent were added to each well, and the plate was incubated for 40 min at 25 °C in a plate thermostat with orbital shaking at 600 rpm. Once the incubation was complete, the luminescence intensity was measured using a Victor Light luminometer (Perkin Elmer, Inc., Waltham, MA, USA). IC50 values were determined based on luminescence intensity measured in wells containing tested compounds at different concentrations in relation to control wells. These values were calculated with Graph Pad 5.03 software by fitting the curve using non-linear regression. Each compound was tested at least in quadruplicates (4 wells) on two 96-well plates utilizing at least 4 wells for each control. Averaged results of inhibition activity respective to specific isoforms of PI3K kinases for tested compounds are presented as IC50 values in Table 1, Table 2, Table 3 and Table 4.

Assay [4] has as its target T4, PI3Kγ (Homo sapiens, UniProt P48736).
T4 construct: purchased Merck Millipore
In words: In vitro kinase inhibition assay for PI3K (ADP-Glo), PI3Kγ. Conditions: for Fold Selectivity γ/δ: ratio of IC50 PI3Kγ to IC50 PI3Kδ. The protocol:
as §1, §2

Where [5] appears, read: recombinant kinase, ADP-Glo, mean of two independent experiments, read-out: IC50 PI3K γ.

T4 sequence (P48736 whole entry): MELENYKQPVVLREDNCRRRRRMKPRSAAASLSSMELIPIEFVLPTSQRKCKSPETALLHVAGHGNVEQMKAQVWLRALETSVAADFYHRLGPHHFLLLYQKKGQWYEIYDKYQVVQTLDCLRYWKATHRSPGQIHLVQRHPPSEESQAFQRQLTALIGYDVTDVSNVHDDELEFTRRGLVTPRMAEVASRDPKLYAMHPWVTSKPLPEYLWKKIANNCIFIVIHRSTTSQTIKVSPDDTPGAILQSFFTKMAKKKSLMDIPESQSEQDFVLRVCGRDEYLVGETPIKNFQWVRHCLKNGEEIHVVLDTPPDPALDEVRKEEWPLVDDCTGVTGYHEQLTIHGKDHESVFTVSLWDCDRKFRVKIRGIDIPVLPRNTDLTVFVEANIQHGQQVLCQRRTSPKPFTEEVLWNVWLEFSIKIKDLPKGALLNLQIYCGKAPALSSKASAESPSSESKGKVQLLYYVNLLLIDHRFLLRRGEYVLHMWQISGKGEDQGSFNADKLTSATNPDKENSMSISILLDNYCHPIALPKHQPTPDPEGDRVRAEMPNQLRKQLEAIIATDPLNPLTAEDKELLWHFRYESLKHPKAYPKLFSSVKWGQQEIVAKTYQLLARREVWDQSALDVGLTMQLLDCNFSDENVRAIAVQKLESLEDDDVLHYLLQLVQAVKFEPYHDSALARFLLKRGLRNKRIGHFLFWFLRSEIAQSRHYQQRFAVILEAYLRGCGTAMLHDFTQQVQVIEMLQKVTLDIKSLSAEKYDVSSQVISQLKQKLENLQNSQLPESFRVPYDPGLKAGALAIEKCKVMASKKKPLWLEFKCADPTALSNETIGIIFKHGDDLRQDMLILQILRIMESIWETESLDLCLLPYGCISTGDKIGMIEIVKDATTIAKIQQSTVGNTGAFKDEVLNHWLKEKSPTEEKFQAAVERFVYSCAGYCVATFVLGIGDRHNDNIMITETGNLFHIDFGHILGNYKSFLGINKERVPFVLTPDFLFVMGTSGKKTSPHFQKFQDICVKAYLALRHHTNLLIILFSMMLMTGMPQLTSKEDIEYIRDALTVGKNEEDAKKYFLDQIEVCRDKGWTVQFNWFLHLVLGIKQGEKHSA
T3 sequence (P42336 whole entry): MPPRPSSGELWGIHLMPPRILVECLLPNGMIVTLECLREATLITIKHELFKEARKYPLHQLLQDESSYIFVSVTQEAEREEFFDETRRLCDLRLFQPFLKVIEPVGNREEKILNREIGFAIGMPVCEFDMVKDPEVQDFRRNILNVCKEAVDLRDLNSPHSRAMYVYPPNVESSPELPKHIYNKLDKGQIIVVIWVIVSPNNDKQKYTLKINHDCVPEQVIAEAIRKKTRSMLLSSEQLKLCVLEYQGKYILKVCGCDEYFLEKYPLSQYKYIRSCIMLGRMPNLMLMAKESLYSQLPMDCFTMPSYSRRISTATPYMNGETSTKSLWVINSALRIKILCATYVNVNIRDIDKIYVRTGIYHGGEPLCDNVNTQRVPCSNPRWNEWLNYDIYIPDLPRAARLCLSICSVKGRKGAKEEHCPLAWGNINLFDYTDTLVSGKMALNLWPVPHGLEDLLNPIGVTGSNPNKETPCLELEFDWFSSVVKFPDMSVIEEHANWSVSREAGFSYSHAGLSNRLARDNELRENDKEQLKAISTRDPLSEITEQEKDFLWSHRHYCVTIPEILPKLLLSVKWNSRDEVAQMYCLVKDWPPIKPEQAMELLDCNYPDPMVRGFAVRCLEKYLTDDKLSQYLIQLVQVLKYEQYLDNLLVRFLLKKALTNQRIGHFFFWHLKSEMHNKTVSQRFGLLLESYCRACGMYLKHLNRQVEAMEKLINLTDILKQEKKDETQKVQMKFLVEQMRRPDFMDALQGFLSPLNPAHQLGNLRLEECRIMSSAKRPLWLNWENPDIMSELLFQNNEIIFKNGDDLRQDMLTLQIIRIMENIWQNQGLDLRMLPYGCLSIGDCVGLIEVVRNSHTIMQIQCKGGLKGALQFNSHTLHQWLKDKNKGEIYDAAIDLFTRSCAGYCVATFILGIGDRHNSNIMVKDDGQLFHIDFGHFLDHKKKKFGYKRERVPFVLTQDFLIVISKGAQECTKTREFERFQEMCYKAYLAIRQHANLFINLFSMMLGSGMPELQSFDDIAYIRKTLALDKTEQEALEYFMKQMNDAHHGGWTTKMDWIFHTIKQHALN
T3 sequence (P27986 whole entry partner): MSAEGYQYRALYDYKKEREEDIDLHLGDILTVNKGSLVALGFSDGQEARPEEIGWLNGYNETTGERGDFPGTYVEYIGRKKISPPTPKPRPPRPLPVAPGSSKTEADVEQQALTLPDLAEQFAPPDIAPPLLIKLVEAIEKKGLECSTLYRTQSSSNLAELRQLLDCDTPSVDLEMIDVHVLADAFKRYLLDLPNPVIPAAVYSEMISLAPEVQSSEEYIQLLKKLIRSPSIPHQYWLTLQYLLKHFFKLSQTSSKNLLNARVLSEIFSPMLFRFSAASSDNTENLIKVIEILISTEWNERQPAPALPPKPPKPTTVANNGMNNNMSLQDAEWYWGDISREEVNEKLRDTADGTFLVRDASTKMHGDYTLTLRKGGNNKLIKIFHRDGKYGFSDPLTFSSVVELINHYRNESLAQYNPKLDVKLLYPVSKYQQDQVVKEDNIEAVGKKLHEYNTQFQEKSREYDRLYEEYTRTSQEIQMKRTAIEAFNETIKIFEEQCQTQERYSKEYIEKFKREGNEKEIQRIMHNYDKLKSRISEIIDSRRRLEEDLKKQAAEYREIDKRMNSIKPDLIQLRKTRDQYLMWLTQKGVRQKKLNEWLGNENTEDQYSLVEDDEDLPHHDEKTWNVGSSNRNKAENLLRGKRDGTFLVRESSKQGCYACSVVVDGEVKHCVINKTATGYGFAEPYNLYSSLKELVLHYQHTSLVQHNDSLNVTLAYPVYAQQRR
T2 sequence (P42338 whole entry): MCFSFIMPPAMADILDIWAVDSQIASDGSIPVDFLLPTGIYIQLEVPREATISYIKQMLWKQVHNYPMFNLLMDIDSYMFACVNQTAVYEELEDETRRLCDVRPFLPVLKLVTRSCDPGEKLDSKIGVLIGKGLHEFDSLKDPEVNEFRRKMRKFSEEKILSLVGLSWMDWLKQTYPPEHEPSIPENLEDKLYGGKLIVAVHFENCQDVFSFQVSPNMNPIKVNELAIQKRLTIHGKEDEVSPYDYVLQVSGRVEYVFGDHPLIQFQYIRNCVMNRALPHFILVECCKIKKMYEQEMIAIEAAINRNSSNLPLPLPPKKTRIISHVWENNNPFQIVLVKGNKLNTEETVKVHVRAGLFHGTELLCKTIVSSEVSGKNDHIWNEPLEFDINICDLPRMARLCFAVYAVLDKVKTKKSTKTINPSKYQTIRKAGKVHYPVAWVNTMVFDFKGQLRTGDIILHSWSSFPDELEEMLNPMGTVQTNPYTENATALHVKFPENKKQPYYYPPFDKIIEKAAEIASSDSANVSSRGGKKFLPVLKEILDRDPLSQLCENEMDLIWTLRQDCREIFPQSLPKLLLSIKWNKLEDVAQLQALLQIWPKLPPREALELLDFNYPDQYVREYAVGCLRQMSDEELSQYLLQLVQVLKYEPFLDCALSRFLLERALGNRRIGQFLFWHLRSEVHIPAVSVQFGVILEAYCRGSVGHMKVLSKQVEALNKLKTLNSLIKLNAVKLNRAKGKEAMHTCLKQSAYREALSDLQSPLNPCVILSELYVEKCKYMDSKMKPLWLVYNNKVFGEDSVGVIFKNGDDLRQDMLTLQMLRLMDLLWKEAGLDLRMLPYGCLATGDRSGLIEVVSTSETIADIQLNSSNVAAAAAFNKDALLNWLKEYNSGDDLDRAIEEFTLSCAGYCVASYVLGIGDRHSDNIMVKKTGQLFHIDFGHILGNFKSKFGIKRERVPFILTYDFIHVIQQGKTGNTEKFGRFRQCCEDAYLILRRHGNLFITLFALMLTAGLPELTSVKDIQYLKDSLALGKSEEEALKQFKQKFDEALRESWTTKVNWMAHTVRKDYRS
T2 sequence (P27986 whole entry, further chain): as the sequence (P27986 whole entry partner) above
T1 sequence (P27986 whole entry): as the sequence (P27986 whole entry partner) above
T1 sequence (O00329 whole entry): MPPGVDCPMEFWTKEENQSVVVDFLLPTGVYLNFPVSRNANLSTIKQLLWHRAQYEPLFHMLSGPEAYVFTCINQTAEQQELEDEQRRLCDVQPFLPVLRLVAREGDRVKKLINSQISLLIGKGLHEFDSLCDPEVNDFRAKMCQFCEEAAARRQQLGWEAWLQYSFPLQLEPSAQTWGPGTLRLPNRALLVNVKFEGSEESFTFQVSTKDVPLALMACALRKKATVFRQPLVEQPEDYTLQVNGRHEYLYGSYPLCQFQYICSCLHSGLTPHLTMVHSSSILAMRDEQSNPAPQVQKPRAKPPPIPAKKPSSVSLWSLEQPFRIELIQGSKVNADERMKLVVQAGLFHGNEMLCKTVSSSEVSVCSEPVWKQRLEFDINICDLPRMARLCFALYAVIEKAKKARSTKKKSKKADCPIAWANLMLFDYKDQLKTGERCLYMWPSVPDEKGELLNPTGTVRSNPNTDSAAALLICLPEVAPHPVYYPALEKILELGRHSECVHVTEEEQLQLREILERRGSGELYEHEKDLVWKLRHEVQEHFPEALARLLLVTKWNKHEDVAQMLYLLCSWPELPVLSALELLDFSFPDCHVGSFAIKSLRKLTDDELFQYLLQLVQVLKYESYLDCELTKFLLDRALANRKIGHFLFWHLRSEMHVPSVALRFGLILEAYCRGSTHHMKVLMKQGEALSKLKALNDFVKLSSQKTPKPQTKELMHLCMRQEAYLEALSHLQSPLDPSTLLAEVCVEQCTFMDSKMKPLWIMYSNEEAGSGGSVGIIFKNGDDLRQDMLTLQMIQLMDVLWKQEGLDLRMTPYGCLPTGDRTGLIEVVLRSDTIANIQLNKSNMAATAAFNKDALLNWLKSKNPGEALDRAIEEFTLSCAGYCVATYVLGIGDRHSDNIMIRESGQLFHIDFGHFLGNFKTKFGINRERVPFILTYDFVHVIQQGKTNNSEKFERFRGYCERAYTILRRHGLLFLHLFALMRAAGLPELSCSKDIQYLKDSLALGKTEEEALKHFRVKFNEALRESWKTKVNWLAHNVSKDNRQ

With `CN(C)C1CCN(Cc2cc3nc(-c4cccc5[nH]ccc45)cc(N4CCOCC4)n3n2)CC1` [Compound 24, 2-((4-(dimethylamino)piperidin-1-yl)methyl)-5-(1H-indol-4-yl)-7-(morpholin-4-yl)pyrazolo[1,5-a]pyrimidine], the concentration for half-maximal inhibition (IC50) was 0.037 µM in assay [1], 14.4 µM in assay [2], 6.38 µM in assay [3] and 49.3 µM in assay [4] (setting [5]). Moreover, in assay [2], the “Fold Selectivity β/δ” value is on record as 389. Also, the “Fold Selectivity α/δ” value in assay [3] is 172. Also, in assay [4], the “Fold Selectivity γ/δ” value is 1332.

For `CCN1CCN(Cc2cc3nc(-c4cccc5[nH]ccc45)cc(N4CCOCC4)n3n2)CC1` [Compound 34, 2-((4-ethylpiperazin-1-yl)methyl)-5-(1H-indol-4-yl)-7-(morpholin-4-yl)pyrazolo[1,5-a]pyrimidine], the half-inhibitory concentration (IC50) in assay [1] is 0.043 µM; in assay [2], 10.9 µM; in assay [3], 34.3 µM; in assay [4] (setting [5]), greater than 60 µM. In addition, the “Fold Selectivity β/δ” value in assay [2] stood at 253. Further, the “Fold Selectivity α/δ” value in assay [3] amounted to 798. Further, the “Fold Selectivity γ/δ” value in assay [4] is on record as greater than 1395.

In the case of `CC(C)(O)C1CCN(Cc2cc3nc(-c4cccc5[nH]ccc45)cc(N4CCOCC4)n3n2)CC1` [Compound 36, 2-((4-(2-hydroxypropan-2-yl)piperidin-1-yl)methyl)-5-(1H-indol-4-yl)-7-(morpholin-4-yl)pyrazolo[1,5-a]pyrimidine], the IC50 in assay [1] was 0.013 µM. Also, in assay [2], the “Fold Selectivity β/δ” value was determined as 332 and the IC50 is 4.31 µM. For the same compound, in assay [3], the 50% inhibitory concentration (IC50) was determined as 15.8 µM and the “Fold Selectivity α/δ” value is 1217. Further, in assay [4], the IC50 is 15.9 µM and the “Fold Selectivity γ/δ” value stood at 1223.

`CC(C)(C(N)=O)N1CCN(Cc2cc3nc(-c4cccc5[nH]ccc45)cc(N4CCOCC4)n3n2)CC1` [Compound 38, 2-(4-((5-(1H-indol-4-yl)-7-(morpholin-4-yl)pyrazolo[1,5-a]pyrimidin-2-yl)methyl)piperazin-1-yl)-2-methylpropionamide]: the IC50 in assay [1] was found to be 0.041 µM. Also, in assay [2], the “Fold Selectivity β/δ” value amounted to 146 and the IC50 is 5.99 µM. Moreover, in assay [3], the 50% inhibitory concentration (IC50) stood at 17.7 µM and the “Fold Selectivity α/δ” value is reported as 433. Besides, in assay [4], the midpoint of inhibition, the IC50, lay at 17.5 µM and the “Fold Selectivity γ/δ” value is recorded as 428.

As for `c1cc(-c2cc(N3CCOCC3)n3nc(CN4CCN(C5CC5)CC4)cc3n2)c2cc[nH]c2c1` [Compound 39, 2-((4-cyclopropylpiperazin-1-yl)methyl)-5-(1H-indol-4-yl)-7-(morpholin-4-yl)pyrazolo[1,5-a]pyrimidine], the half-inhibitory concentration (IC50) in assay [1] stood at 0.058 µM. Further, in assay [2], the “Fold Selectivity β/δ” value came to 259 and the IC50 was 15 µM. Also, in assay [3], the IC50 was determined as 25.3 µM and the “Fold Selectivity α/δ” value is 436.

In the case of `CC(C)(C)C1CCN(Cc2cc3nc(-c4cccc5[nH]ccc45)cc(N4CCOCC4)n3n2)CC1` [Compound 41, 2-((4-tert-butylpiperidin-1-yl)methyl)-5-(1H-indol-4-yl)-7-(morpholin-4-yl)pyrazolo[1,5-a]pyrimidine], the half-maximal inhibitory concentration (IC50) in assay [1] was 0.051 µM; in assay [2], 3.17 µM; in assay [3], 12.3 µM; in assay [4] (setting [5]) it was 9.73 µM. Further, the “Fold Selectivity β/δ” value in assay [2] was 62. Further, the “Fold Selectivity α/δ” value in assay [3] was 241. In assay [4], the “Fold Selectivity γ/δ” value stood at 191.

In the case of `c1cc(-c2cc(N3CCOCC3)n3nc(CN4CC5CC4CN5C4COC4)cc3n2)c2cc[nH]c2c1` [Compound 43, 5-(1H-indol-4-yl)-2-(((1S, 4S)-2-(oxetan-3-yl)-2,5-diaza-bicyclo [2.2.1]hept-2-yl)methyl)-7-(morpholin-4-yl)pyrazolo[1,5-a]pyrimidine], the IC50 amounted to 0.071 µM in assay [1] and 22.6 µM in assay [3]. Moreover, in assay [3], the “Fold Selectivity α/δ” value is given as 318.

Consider `O=C(C1CC1)N1CCN(Cc2cc3nc(-c4cccc5[nH]ccc45)cc(N4CCOCC4)n3n2)CC1` [Compound 44, 2-((4-(cyclopropanecarbonyl)piperazin-1-yl)methyl)-5-(1H-indol-4-yl)-7-(morpholin-4-yl)pyrazolo[1,5-a]pyrimidine], for which the half-maximal inhibitory concentration (IC50) amounted to 0.022 µM in assay [1], 7.31 µM in assay [2], 1.27 µM in assay [3] and 0.846 µM in assay [4] (setting [5]). Also, in assay [2], the “Fold Selectivity β/δ” value is 332. Besides, the “Fold Selectivity α/δ” value in assay [3] came to 58. Further, the “Fold Selectivity γ/δ” value in assay [4] is 38.

Consider `c1cc(-c2cc(N3CCOCC3)n3nc(CN4CCN(CC5CC5)CC4)cc3n2)c2cc[nH]c2c1` [Compound 45, 2-((4-(cyclopropylmethyl)piperazin-1-yl)methyl)-5-(1H-indol-4-yl)-7-(morpholin-4-yl)pyrazolo[1,5-a]pyrimidine], for which the IC50 in assay [1] turned out to be 0.029 µM. In assay [3], the concentration for half-maximal inhibition (IC50) stood at 6.32 µM and the “Fold Selectivity α/δ” value came to 218.

Regarding `CC(C)(O)C1CCN(Cc2cc3nc(-c4c(F)ccc5[nH]ccc45)cc(N4CCOCC4)n3n2)CC1` [Compound 49, 2-((4-(2-hydroxypropan-2-yl)piperidin-1-yl)methyl)-5-(5-fluoro-1H-indol-4-yl)-7-(morpholin-4-yl)pyrazolo[1,5-a]pyrimidine], the IC50 in assay [1] came to 0.04 µM; in assay [2], 11.3 µM; in assay [3] it was 34.4 µM; in assay [4] (setting [5]), 47.8 µM. Moreover, in assay [2], the “Fold Selectivity β/δ” value was 283. Also, the “Fold Selectivity α/δ” value in assay [3] turned out to be 860. For the same compound, in assay [4], the “Fold Selectivity γ/δ” value was found to be 1195.

As for `CC(C)(O)C1CCN(Cc2cc3nc(-c4cncc5[nH]ccc45)cc(N4CCOCC4)n3n2)CC1` [Compound 50, 2-((4-(2-hydroxypropan-2-yl)piperidin-1-yl)methyl)-5-(1H-pyrrolo [2,3-c]pyridin-4-yl)-7-(morpholin-4-yl)pyrazolo[1,5-a]pyrimidine], in assay [1], the IC50 is 0.028 µM. Further, in assay [2], the “Fold Selectivity β/δ” value is listed as 188 and the half-inhibitory concentration (IC50) stood at 5.26 µM. Further, in assay [3], the IC50 was determined as 3.65 µM and the “Fold Selectivity α/δ” value is 130.

Take `CC(C)(O)C1CCN(Cc2cc3nc(-c4ccnc5[nH]ccc45)cc(N4CCOCC4)n3n2)CC1` [Compound 51, 2-((4-(2-hydroxypropan-2-yl)piperidin-1-yl)methyl)-5-(1H-pyrrolo [2,3-b]pyridin-4-yl)-7-(morpholin-4-yl)pyrazolo[1,5-a]pyrimidine]: the concentration for half-maximal inhibition (IC50) in assay [1] turned out to be 0.023 µM. Besides, in assay [2], the “Fold Selectivity β/δ” value came out at 1165 and the half-maximal inhibitory concentration (IC50) was 26.8 µM. In addition, in assay [3], the IC50 came to 9.75 µM and the “Fold Selectivity α/δ” value is 424.

For the compound `CC(C)(C)N1CCN(Cc2cc3nc(-c4ccnc5[nH]ccc45)cc(N4CCOCC4)n3n2)CC1` [Compound 55, 2-((4-tert-butylpiperazin-1-yl)methyl)-5-(1H-pyrrolo [2,3-b]pyridin-4-yl)-7-(morpholin-4-yl)pyrazolo[1,5-a]pyrimidine], the IC50 in assay [1] came to 0.045 µM. Further, in assay [2], the “Fold Selectivity β/δ” value worked out at 711 and the IC50 is 32 µM. For the same compound, in assay [3], the IC50 was 2.96 µM and the “Fold Selectivity α/δ” value is reported as 66.

For the origin of these results see PMC9412374, “Design, Synthesis, and Development of pyrazolo[1,5-a]pyrimidine Derivatives as a Novel Series of Selective PI3Kδ Inhibitors: Part I—Indole Derivatives” (Pharmaceuticals, 2022).
